Laboratory results as given in ChEMBL document CHEMBL4152313, “Design, synthesis and bioevaluation of 2-mercapto-6-phenylpyrimidine-4-carboxylic acid derivatives as potent xanthine oxidase inhibitors” (Eur J Med Chem, 2018).

Target: Xanthine dehydrogenase/oxidase (Homo sapiens, UniProt P47989)
Assay: Inhibition of xanthine oxidase (unknown origin) using xanthine as substrate preincubated for 5 mins followed by substrate addition measured for 20 mins by spectrophotometric method

Sequence of Xanthine dehydrogenase/oxidase (P47989 whole entry): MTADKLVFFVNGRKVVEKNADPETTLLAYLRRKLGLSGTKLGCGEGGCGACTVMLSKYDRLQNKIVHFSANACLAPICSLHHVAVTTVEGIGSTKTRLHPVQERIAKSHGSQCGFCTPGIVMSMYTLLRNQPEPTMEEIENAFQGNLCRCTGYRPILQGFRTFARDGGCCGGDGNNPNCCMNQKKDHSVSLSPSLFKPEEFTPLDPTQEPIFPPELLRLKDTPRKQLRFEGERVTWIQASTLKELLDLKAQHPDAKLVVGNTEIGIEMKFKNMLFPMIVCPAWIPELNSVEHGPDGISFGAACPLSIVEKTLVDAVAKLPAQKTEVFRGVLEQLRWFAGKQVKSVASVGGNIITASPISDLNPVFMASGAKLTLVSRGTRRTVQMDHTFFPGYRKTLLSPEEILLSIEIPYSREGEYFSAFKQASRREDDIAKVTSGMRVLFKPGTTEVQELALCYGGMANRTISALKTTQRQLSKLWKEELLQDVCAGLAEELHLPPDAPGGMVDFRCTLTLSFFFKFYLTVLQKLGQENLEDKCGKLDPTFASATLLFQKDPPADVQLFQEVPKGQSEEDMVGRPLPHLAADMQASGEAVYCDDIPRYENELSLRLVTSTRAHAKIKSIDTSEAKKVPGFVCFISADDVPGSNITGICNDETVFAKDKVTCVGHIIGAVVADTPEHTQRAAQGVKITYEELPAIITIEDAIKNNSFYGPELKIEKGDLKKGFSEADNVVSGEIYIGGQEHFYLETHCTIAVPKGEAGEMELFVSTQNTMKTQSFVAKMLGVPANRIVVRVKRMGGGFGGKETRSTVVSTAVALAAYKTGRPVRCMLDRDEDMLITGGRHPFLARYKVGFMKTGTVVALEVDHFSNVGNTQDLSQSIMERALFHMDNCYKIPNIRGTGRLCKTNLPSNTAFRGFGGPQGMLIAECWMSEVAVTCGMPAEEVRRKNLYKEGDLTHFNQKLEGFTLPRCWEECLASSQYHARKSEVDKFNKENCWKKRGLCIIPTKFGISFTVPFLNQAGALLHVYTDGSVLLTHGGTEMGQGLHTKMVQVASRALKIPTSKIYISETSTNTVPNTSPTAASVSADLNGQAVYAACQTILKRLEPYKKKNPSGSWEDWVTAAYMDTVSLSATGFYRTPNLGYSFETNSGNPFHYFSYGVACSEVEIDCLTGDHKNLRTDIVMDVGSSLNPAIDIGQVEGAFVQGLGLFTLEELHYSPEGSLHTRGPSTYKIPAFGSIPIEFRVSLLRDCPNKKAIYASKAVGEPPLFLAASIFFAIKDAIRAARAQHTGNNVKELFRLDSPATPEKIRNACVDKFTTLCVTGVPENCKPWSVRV

IC50: 13 nM
SMILES: Cc1nc(-c2ccc(OCC(C)C)c(C#N)c2)sc1C(=O)O [FEBUXOSTAT]
